Patent publication US7223759B2, “Antibacterial 3,5-diaminopiperidine-substituted aromatic and heteroaromatic compounds” (Anadys Pharmaceuticals, Inc., priority 2003, dated 2007)
Read-outs that look alike come from different tables or passages of the source.

Tested on: Escherichia coli (ATCC25922) or Staphylococcus aureus (ATCC25923)
Experiment: Antibacterial MIC, microdilution method in Mueller-Hinton medium
Assay type: cell-based
Conditions: Escherichia coli, 18 h, read-out: Potency (MIC)
Procedure, shortened: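 Read after 18 h incubation at 35° C, MIC is the lowest compound level that blocked growth. Compounds were tested in duplicate over 64–0.5 μg/ml two-fold dilutions using Mueller-Hinton microdilution per NCCLS standard.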

[1] = MIC in E. coli or S. aureus, two-fold serial dilutions 64 to 0.5 μg/ml in duplicate, 18 hours of incubation at 35° C.

SMILES	MIC	MIC [1]
N[C@@H]1C[C@H](N)CN(c2nc(Nc3ccc(NC(=O)c4ccccc4)c(O)c3)nc(N3C[C@H](N)C[C@H](N)C3)n2)C1 [N-(4-benzoylamino-3-hydroxy-phenyl)-4,6-Bis-((3R,5S)-3,5-diamino-piperidin-1-yl)-[1,3,5]triazine-2-amine]	< 16 µg/mL	
Cc1ccc(Nc2nc(N3C[C@H](N)C[C@H](N)C3)nc(N3C[C@H](N)C[C@H](N)C3)n2)cc1C.Cl [N-(3,4-dimethyl-phenyl)-4,6-Bis-((3R,5S)-3,5-ddiamino-piperidin-1-yl)-[1,3,5]triazine-2-amine]		< 64 µg/mL
COc1ccc(OC)c(Nc2nc(N3C[C@H](N)C[C@H](N)C3)nc(N3C[C@H](N)C[C@H](N)C3)n2)c1 [N-(2,5-dimethoxy-phenyl)-4,6-Bis-((3R,5S)-3,5-diamino-piperidin-1-yl)-[1,3,5]triazine-2-amine]		> 64 µg/mL
Cc1cc(=O)oc2cc(Nc3nc(NCCN)nc(N4C[C@H](N)C[C@H](N)C4)n3)ccc12 [7-[4-(2-Amino-ethylamino)-6-((3R,5S)-3,5-diamino-piperidin-1-yl)-[1,3,5]triazin-2-ylamino]-4-methyl-chromen-2-one]	> 64 µg/mL	
NC[C@@H]1C[C@H](CN)CN(c2nc(Nc3ccc(NC(=O)c4ccc5ccccc5c4O)cc3)nc(N3C[C@H](N)C[C@H](N)C3)n2)C1 [1-Hydroxy-naphthalene-2-carboxylic acid {4-[4-((3R,5S)-3,5-bis-(aminomethyl)-piperidin-1-yl)-6-((3R,5S)-3,5-diamino-piperidin-1-yl)-[1,3,5]triazine-2-ylamino]-phenyl}-amide]	< 16 µg/mL	
N[C@@H]1C[C@H](N)CN(c2nc(Nc3ccc(NC(=O)c4ccc(Cl)cc4)c(O)c3)nc(N3C[C@@H](N)C[C@H]3CO)n2)C1 [N-{4-[4-((2S,4S)-4-Amino-2-hydroxymethyl-pyrrolidin-1-yl)-6-((3R,5S)-3,5-diamino-piperidin-1-yl)-[1,3,5]triazin-2-ylamino]-2-hydroxy-phenyl}-4-chloro-benzamide]	< 64 µg/mL	
N[C@@H]1C[C@H](N)CN(c2nc(Nc3ccc(C(=O)CC(=O)Nc4ccccc4Cl)cc3)nc(N3C[C@H](O)C[C@H](O)C3)n2)C1 [N-(2-Chloro-phenyl)-3-{4-[4-((3R,5S)-3,5-diamino-piperidin-1-yl)-6-((3R,5S)-3,5-dihydroxy-piperidin-1-yl)-[1,3,5]triazin-2-ylamino]-phenyl}-3-oxo-propionamide]	< 64 µg/mL	
N[C@@H]1C[C@H](N)CN(c2nc(Nc3ccc(C(=O)CC(=O)Nc4ccccc4C(F)(F)F)cc3)nc(N3C[C@H](N)C[C@H](N)C3)n2)C1 [N-{4-[2-(2-trifluoromethyl-phenylcarbamoyl)-acetyl]-phenyl}-4,6-Bis-((3R,5S)-3,5-diamino-piperidin-1-yl)-[1,3,5]triazine-2-amine]	< 64 µg/mL	
N[C@@H]1C[C@H](N)CN(c2nc(Nc3ccc(C(=O)Nc4ccccc4F)c(O)c3)nc(N3C[C@H](N)C[C@H](N)C3)n2)C1 [N-[4-(2-fluoro-phenylcarbamoyl)-3-hydroxy-phenyl]-4,6-Bis-((3R,5S)-3,5-diamino-piperidin-1-yl)-[1,3,5]triazine-2-amine]	< 64 µg/mL	
CC(=O)c1ccc(Nc2nc(N3C[C@H](N)C[C@H](N)C3)nc(N3C[C@@H](O)[C@@H](O)C3)n2)cc1 [1-{4-[4-((3R,5S)-3,5-Diamino-piperidin-1-yl)-6-((3R,4S)-3,4-dihydroxy-pyrrolidin-1-yl)-[1,3,5]triazin-2-ylamino]-phenyl}-ethanone]	> 64 µg/mL	
N[C@@H]1C[C@H](N)CN(c2nc(Nc3ccc(NC(=O)c4ccc(Cl)cc4O)c(O)c3)nc(N3C[C@H](N)C[C@H](N)C3)n2)C1 [N-[4-(4-chloro-2-hydroxy-benzoylamino)-3-hydroxy-phenyl]-4,6-Bis-((3R,5S)-3,5-diamino-piperidin-1-yl)-[1,3,5]triazine-2-amine]	< 16 µg/mL	
N[C@@H]1C[C@H](N)CN(c2nc(Nc3ccc(-c4ccccc4)cc3)nc(N3C[C@H](N)C[C@H](N)C3)n2)C1 [N-biphenyl-4-yl-4,6-Bis-((3R,5S)-3,5-diamino-piperidin-1-yl)-[1,3,5]triazine-2-amine]	< 64 µg/mL	
COc1ccc(NC(=O)c2cccc(C)c2O)c(Nc2nc(N3C[C@H](N)C[C@H](N)C3)nc(N3C[C@H](N)C[C@H](N)C3)n2)c1 [N-[2-(2-hydroxy-3-methyl-benzoylamino)-5-methoxy-phenyl]-4,6-Bis-((3R,5S)-3,5-diamino-piperidin-1-yl)-[1,3,5]triazine-2-amine]	> 64 µg/mL	
COc1ccc(NC(=O)c2ccc(O)cc2O)c(Nc2nc(N3C[C@H](N)C[C@H](N)C3)nc(N3C[C@H](N)C[C@H](N)C3)n2)c1 [N-[2-(2,4-dihydroxy-benzoylamino)-5-methoxy-phenyl]-4,6-Bis-((3R,5S)-3,5-diamino-piperidin-1-yl)-[1,3,5]triazine-2-amine]	> 64 µg/mL	
Cc1ccc(C(=O)Nc2ccc(Nc3nc(N4C[C@H](N)C[C@H](N)C4)nc(N4C[C@H](CN)C[C@H](CN)C4)n3)cc2O)cc1 [N-{4-[4-((3S,5R)-3,5-Bis-(aminomethyl)-piperidin-1-yl)-6-((3R,5S)-3,5-diamino-piperidin-1-yl)-[1,3,5]triazin-ylamino]-2-hydroxy-phenyl}-4-methyl-benzamide]	< 64 µg/mL	
COc1nc(Nc2ccc(C(C)=O)cc2)nc(N2C[C@H](N)C[C@H](N)C2)n1 [1-{4-[4-((3R,5S)-3,5-Diamino-piperidin-1-yl)-6-methoxy-[1,3,5]triazin-2-ylamino]-phenyl}-ethanone]	> 64 µg/mL	
Cc1ccc(S(=O)(=O)NC(Cc2ccccc2)C(=O)Nc2ccc(Nc3nc(N4CCCCC4)nc(N4CCCCC4)n3)cc2O)cc1.Cl [N-{3-hydroxy-4-[3-phenyl-2-(toluene-4-sulfonylamino)-propionylamino]-phjenyl}-4,6-Bis-((3R,5S)-3,5-diamino-piperidin-1-yl)-[1,3,5]triazine-2-amine]		< 16 µg/mL
N[C@@H]1C[C@H](N)CN(c2nc(Nc3ccc(NC(=O)c4ccc(Cl)cc4O)c(C(=O)Nc4ccccc4)c3)nc(N3C[C@H](N)C[C@H](N)C3)n2)C1 [N-[4-(4-chloro-2-hydroxy-benzoylamino)-3-phenylcarbamoyl-phenyl]-4,6-Bis-((3R,5S)-3,5-diamino-piperidin-1-yl)-[1,3,5]triazine-2-amine]	< 16 µg/mL	
Cc1ccc(S(=O)(=O)N(Cc2ccccc2)c2ccc(Nc3nc(C4CCCCC4)nc(N4CCCCC4)n3)cc2O)cc1.Cl [N-{4-[4-((3S,5R)-3-Amino-5-hydroxy-piperidin-1-yl)-6-((3R,5S)-3,5-diamino-piperidin-1-l)-[1,3,5]triazin-2-ylamino]-2-hydroxy-phenyl}-N-benzyl-4-methyl-benzenesulfonamide]		< 64 µg/mL
N[C@@H]1C[C@H](N)CN(c2nc(NNc3ccccn3)nc(N3C[C@H](N)C[C@H](N)C3)n2)C1 [N-(4,6-Bis-((3R,5S)-3,5-diamino-piperidin-1-yl)-[1,3,5]triazin-2-yl)-N′-Pyridin-2-yl-hydrazine]	> 64 µg/mL	
CC(C)C(=O)Nc1ccc(Nc2nc(N3C[C@H](N)C[C@H](N)C3)nc(N3C[C@H](N)C[C@H](N)C3)n2)cc1O [N-(3-hydroxy-4-isobutyrylamino-phenyl)-4,6-Bis-((3R,5S)-3,5-diamino-piperidin-1-yl)-[1,3,5]triazine-2-amine]		> 64 µg/mL
N[C@@H]1C[C@H](N)CN(c2nc(Nc3ccc(NC(=O)c4ccc(Cl)cc4O)cc3)nc(N3C[C@H](N)C[C@H](N)C3)n2)C1 [N-[4-(4-chloro-2-hydroxy-benzoylamino)-phenyl]-4,6-Bis-((3R,5S)-3,5-diamino-piperidin-1-yl)-[1,3,5]triazine-2-amine]	< 16 µg/mL	
NCCNc1nc(Nc2ccc3c(c2)-c2ccccc2C3=O)nc(N2C[C@H](N)C[C@H](N)C2)n1 [3-[4-(2-Amino-ethylamino)-6-((3R,5S)-3,5-diamino-piperidin-1-yl)-[1,3,5]triazin-2-ylamino]-fluoren-9-one]	> 64 µg/mL	
N[C@@H]1C[C@H](N)CN(c2nc(Nc3ccc(C(=O)CC(=O)NCc4ccc5c(c4)OCO5)cc3)nc(N3C[C@H](N)C[C@H](N)C3)n2)C1 [N-(4-{2-[(benzo[1,3]dioxol-5-ylmethyl)-carbamoyl]-acetyl}-phenyl)-4,6-Bis-((3R,5S)-3,5-diamino-piperidin-1-yl)-[1,3,5]triazine-2-amine]	> 64 µg/mL	
N[C@@H]1C[C@H](N)CN(c2nc(Nc3ccc(C(=O)N4CCc5cc(Br)ccc54)c(O)c3)nc(N3C[C@H](N)C[C@H](N)C3)n2)C1 [N-[4-(5-bromo-2,3-dihydro-indole-1-carbonyl)-3-hydroxy-phenyl]-4,6-Bis-((3R,5S)-3,5-diamino-piperidin-1-yl)-[1,3,5]triazine-2-amine]	< 16 µg/mL	
NCCN(CCN)c1nc(Nc2ccc(NC(=O)c3ccc4ccccc4c3O)cc2)nc(N2C[C@H](N)C[C@H](N)C2)n1 [1-Hydroxy-naphthalene-2-carboxylic acid {4-[4-[bis-(2-amino-ethyl)-amino]-6-((3R,5S)-3,5-diamino-piperidin-1-yl)-[1,3,5]triazin-2-ylamino]-phenyl}-amide]	< 16 µg/mL	
NC[C@@H]1C[C@@H](O)CN1c1nc(Nc2ccc3c(c2)C(=O)c2ccccc2-3)nc(N2C[C@H](N)C[C@H](N)C2)n1 [2-[4-((2S,4R)-2-Aminomethyl-4-hydroxy-pyrrolidin-1-yl)-6-((3R,5S)-3,5-diamino-piperidin-1-yl)-[1,3,5]triazin-2-ylamino]-fluoren-9-one]	> 64 µg/mL	
CC(C)CCCCCC(=O)Nc1ccc(S(=O)(=O)Nc2ccc(Nc3nc(N4C[C@H](N)C[C@H](N)C4)nc(N4C[C@H](N)C[C@H](N)C4)n3)cc2O)cc1 [N-{3-hydroxy-4-[4-(7-methyl-octanoylamino)-benzenesulfonylamino]-phenyl}-4,6-Bis-((3R,5S)-3,5-diamino-piperidin-1-yl)-[1,3,5]triazine-2-amine]	< 16 µg/mL	
N[C@@H]1C[C@H](N)CN(c2nc(Nc3nc4ccccc4s3)nc(N3C[C@H](N)C[C@H](N)C3)n2)C1 [N-benzothiazol-2-yl-4,6-Bis-((3R,5S)-3,5-diamino-piperidin-1-yl)-[1,3,5]triazine-2-amine]	< 64 µg/mL	
